{"source": "patent US5157032A", "about": "“Mixed ligand complexes and uses thereof as binding agents and probes to DNA” (The Trustees of Columbia University In The City of New York, priority 1990, dated 1992)", "key": {"poly d(AT).d(AT)": {"tested_on": "poly d(AT).d(AT)", "experiment": "Luminescence with poly d(AT).d(AT)", "type": "binding", "conditions": "Buffer (50.0 mM NaCl), 25"}, "CT DNA": {"tested_on": "CT DNA", "experiment": "Luminescence in presence of CT DNA", "type": "binding, calf", "method": "While a linear relationship of the luminescence is observed for Ru(bpy)2 (dppz)^2+ in iso-propanol as a function of temperature this is not the behavior seen when the complex is bound to DNA. When the complex, Ru(bpy)2 (dppz)^2+ is bound to cal-thymus (CT) DNA (100 μM) under low salt conditions at 25 ° C. a biexponential lifetime is observed. A short component which is assigned to a surface interaction, and a long component which is assigned to an intercalated species. As is shown in Table 1, the short component remains relatively unchanged until 70 ° C. when there is an abrupt decrease in the lifetime to 45 ns at 85° C. […] Under these conditions the CT DNA melts and the observed lifetimes of the complexes are similar to those lifetimes measured with single stranded DNA. […] In fact there is an abrupt decrease in the quantum yield at the melting temperature at this salt concentration. This decrease in quantum yield may be explained thus: when the complex is bound to the double stranded form the quenching ability of H2 O is inhibited while at the melting temperature the single stranded form of DNA cannot protect the complex from quenching of H2 O and therefore the observed luminescence is not as intense."}, "Z-form DNA": {"tested_on": "Z-form DNA", "experiment": "Steady state luminescence polarization with Z-form DNA", "type": "binding", "method": "(§1) FIG. 22 Steady State Polarization of Ru(bpy)2 (dppz)^2+ with B and Z-form DNA Under the conditions that provide B-form (lower curve) DNA the highest measured polarization is 0.15 with a limiting polarization 0.10. Under the conditions that provide Z-DNA (upper curve) the highest polarization is 0.35 with a limiting polarization of 0.14. Ru(bpy)2 (dppz)^2+ 10 μM, poly d(GC) d(GC) 100 μM, λex =482 nm.\nSimilarly, when 1 μM Ru(bpy)2 (dppz)^2+ is titrated into poly d(GC).d(GC) (100 μM) in the Z-form, luminescence polarization is also observed, but in this case the value is 0.35, over double the value found with the analogous solution with B-form. […] As more complex is added the observed polarization reduces to a limiting value of 0.14, still higher than the analogous sample with B-form, thus further confirming the Z-form is a more rigid structure than the B-form."}, "[1]": {"tested_on": "electrophoresed DNA in agarose gel", "experiment": "Staining of DNA in agarose gels", "conditions": "in words", "source_text": "One interesting application is the binding of this complex to DNA that has been electrophoresed in a agarose gel."}, "poly r(AU).r(AU)": {"tested_on": "poly r(AU).r(AU)", "experiment": "Luminescence with poly r(AU).r(AU)", "type": "binding", "source_text": "It appears then that luminescence is observed only when the ruthenium complex is intercalated in (or perhaps otherwise protected by) the nucleic acid structure. […] The relative luminescence of ruthenium complexes in the presence of various helical DNA's under varying conditions is shown in Table 16."}, "B-form DNA": {"tested_on": "B-form DNA", "experiment": "Steady state luminescence polarization with B-form DNA", "type": "binding", "conditions": "100 μM DNA", "method": "as §1\nTo further test the extent of intercalation of this complex a study of the steady state luminescence polarization of the complex bound to each form of DNA was made. These experiments give information on how rigidly the complex is held by the DNA. […] This reflects a situation where the complex is completely bound to the right-handed helix. As the concentration of Ru(bpy)2 (dppz)^2+ increases, the polarization decreases to limiting value (0.10) at a complex:base pair ratio of 1:10.\nTo further test the extent of intercalation of this complex we studied the steady state luminescence polarization of the complex bound to each form of DNA. These experiments give information on how rigidly the complex is held by the DNA. […] This reflects a situation where the complex is completely bound to the right-handed helix. As the concentration of Ru(bpy)2 (dppz)^2+ increases, the polarization decreases to a limiting value (0.10) at a complex: base pair rtio of 1:10."}, "[2]": {"tested_on": "poly d(GC).d(GC) Z-form DNA", "experiment": "Luminescence with poly d(GC).d(GC), Z-form", "type": "binding", "method": "(§2) FIG. 21A to 21C: Luminescent Enhancement of Ru(bpy)2 (dppz)^2+ with B and Z-form DNA a. Ru(bpy)2 (dppz)^2+ 10 μM in buffer R=50.0 mM NaCl, 5.0 mM Tris-OH, pH=7.0. b. Ru(bpy)2 (dppz)2 10 μM in buffer R, with poly d(GC) d(GC) 100 μM under conditions providing B-form DNA. c. Ru(bpy)2 (dppz)^2+ 10 μM in buffer R-L=20.0 mM NaCl, 2.0 mM Tris-OH, pH 7.0, Co(NH3)6^3+ 4μM., with poly d(GC) d(GC) 100 μM under conditions providing Z-form DNA. All λex =482 nm.\nPreparations of Ru(bpy)2 (dppz)^2+ (10 μM) in buffer R^(40) and buffer R-L^(41) (pH 7.0) produced species that were nonluminescent solutions (FIG. 21a) (λirr =482 nm). […] Luminescent behavior such as this can be attributed to a highly intercalated species. This must be due to the complex being bound to the Z-form and not due to lower salt conditions (or added Co(NH3)6^3+) as the under the same Z-form producing conditions, calf thymus DNA produces the expected B-form luminescence.\nAn interesting twist to the luminescent properties of Ru(bpy)2 (dppz)^2+ is observed when this complex is bound to the left handed helix Z-form DNA. […] Luminescent behavior such as this can be attributed to a highly intercalated species. This must be due to the complex being bound to the Z-from nand not due to lower salt conditions (or added Co(NH3)6^3+) as the under the same Z-form producing conditions, calf thymus DNA produces the expected B-from luminescence."}, "[3]": {"tested_on": "poly d(GC).d(GC) B-form DNA", "experiment": "Luminescence with poly d(GC).d(GC), B-form", "type": "binding", "method": "as §2\nAs expected, preparations of Ru(bpy)2(dppz)^2+ (10 μM) in buffer R(^9) and buffer R-L(^10) (pH=7.0) produced species that were nonluminescent solutions (FIG. 21a) (λirr =482 nm)."}, "[4]": {"conditions": "10 μM complex, 100 μM DNA, buffer R-L"}}, "note": "“Also recorded” adds a separate entry of the source."}
{"smiles": "[Ru+2].c1ccc(-c2ccccn2)nc1.c1ccc(-c2ccccn2)nc1.c1ccc2nc3c4cccnc4c4ncccc4c3nc2c1", "note": "[Ru(bpy)2 (dppz)^2+]", "values": [{"measurement": "Rel. Lumi.", "setting": "poly d(AT).d(AT)", "result": 0.68}, {"measurement": "Rel. Lumi.", "setting": "CT DNA; Buffer (50.0 mM NaCl), 25", "result": 0.55}, {"measurement": "Rel. Lumi.", "setting": "CT DNA; Buffer (50.0 mM NaCl), 75", "result": 0.53}, {"measurement": "Rel. Lumi.", "setting": "CT DNA; Buffer** (0.5 mM NaCl), 25", "result": 0.61}, {"measurement": "Rel. Lumi.", "setting": "CT DNA; Buffer** (0.5 mM NaCl), 35", "result": 0.06}, {"measurement": "Rel. Lumi.", "setting": "CT DNA; Buffer** (0.5 mM NaCl), 45", "result": 0.59}, {"measurement": "Rel. Lumi.", "setting": "CT DNA; Buffer** (0.5 mM NaCl), 55", "result": 0.55}, {"measurement": "Rel. Lumi.", "setting": "CT DNA; Buffer** (0.5 mM NaCl), 70", "result": 0.47}, {"measurement": "Rel. Lumi.", "setting": "CT DNA; Buffer** (0.5 mM NaCl), 90", "result": 0.23}, {"measurement": "highest luminescence polarization, Z-form", "setting": "Z-form DNA; 1 μM complex, 100 μM DNA", "result": 0.35}, {"measurement": "limiting luminescence polarization, Z-form", "setting": "Z-form DNA; 100 μM DNA", "result": 0.14}, {"measurement": "relative strength of binding, Z-form vs B-form", "setting": "Z-form DNA; in words", "result": "binds better to the Z-form; also recorded: held more rigidly by Z-form than by the analogous B-form"}, {"measurement": "staining of DNA in agarose gels", "setting": "[1]", "result": "no background luminescence from the complex bound to agarose"}, {"measurement": "luminescence with poly r(AU).r(AU)", "setting": "poly r(AU).r(AU); 10 μM complex, 100 μM RNA, buffer R", "result": "no luminescence"}, {"measurement": "Rel. Lumi.", "setting": "poly r(AU).r(AU); Buffer (50.0 mM NaCl), 25", "result": 0.01}, {"measurement": "highest luminescence polarization, B-form", "setting": "B-form DNA; 1 μM probe", "result": 0.15}, {"measurement": "limiting luminescence polarization, B-form", "setting": "B-form DNA", "result": 0.10}, {"measurement": "luminescence with Z-form DNA", "setting": "[2]; [4]", "result": "highly luminescent"}, {"measurement": "luminescence λmax with Z-form DNA", "setting": "[2]; [4]", "result": 640, "unit": "nm"}, {"measurement": "effect on Z to B transition", "setting": "[2]; circular dichroism, over hours", "result": "does not cause the Z to B transition"}, {"measurement": "luminescence with B-form DNA", "setting": "[3]; 10 μM complex, 100 μM DNA", "result": "highly luminescent"}, {"measurement": "luminescence λmax with B-form DNA", "setting": "[3]; 10 μM complex, 100 μM DNA", "result": 628, "unit": "nm"}, {"measurement": "Rel. Lumi.", "setting": "[3]; Buffer (50.0 mM NaCl), poly d(GC).d(GC), 25", "result": 0.72}]}
